From patent US12178838B2, “Synthetic neuromodulatory peptides” (Lactocore, Inc., priority 2019, dated 2024)

How the values were obtained:
p-PKC (PKC gamma Thr514) = assay: Western blot of brain homogenates after CRS: p-PKC; format: in vivo, rats
Method: (§1) To simulate a depressive state, experimental animals were placed in the individual restrainers (“Open Science”, Russia) for six hours daily for 14 days (hereinafter “chronic restraint stress=CRS”). […] The administration of drugs was carried out daily, 30 minutes before placing rats in the restrainers.
(§2) At the end of the behavioral examination, the rats were decapitated, and their brains extracted for subsequent western blot analysis. A total of 51 samples of homogenized brain tissue from Sprague-Dawley rats (3-4 months old) were received from the Customer. 25 samples were homogenates of the cerebral cortex, 26 samples were homogenates of the hippocampus isolated from rat brain. The amount of homogenized tissue in each sample was less than 50 mg. […] They were Incubated in ice for 30 minutes. Then the samples were centrifuged at 12000 g, 15 minutes, +4° C.
(§3) All the steps necessary for the analysis of protein levels of BDNF, p-p70S6k (Thr421/Ser424), p-ERK (one and two), (Thr202/Tyr204), p-GSK3β (Ser9), p-PKC (PKCG gamma Thr514) and the GAPDH reference protein were provided in the studied samples using Western blotting. […]
(§4) The integral areas of the spots obtained were calculated as a quantitative assessment and then normalized to the amount of protein in the sample.

p-ERK 2 (Tyr204) = assay: Western blot of brain homogenates after CRS: p-ERK2; format: in vivo, rats; conditions: fluoxetine 5 mg/kg; FQSE 0.3 mg/kg; against stress and control levels
Method: as §1, §2, §3, §4

p-GSK3β (Ser9) = assay: Western blot of brain homogenates after CRS: p-GSK3β; format: in vivo, rats; conditions: fluoxetine; FQSE
Method: as §1, §2, §3, §4

p-p70S6k (Thr421/Ser424) = assay: Western blot of brain homogenates after CRS: p-p70S6k; format: in vivo, rats; conditions: fluoxetine 5 mg/kg
Method: as §1, §2, §3, §4

Sprague-Dawley rats = assay: Chronic restraint stress model: Porsolt Forced Swimming test; format: in vivo; conditions: CRS, FQSE 3 mg/kg intranasal
Method: To simulate a depressive state, experimental animals were placed in the individual restrainers (“Open Science”, Russia) for six hours daily for 14 days (hereinafter “chronic restraint stress=CRS”). In order to study the neurotrophic effect of FQSE (SEQ ID NO:10), the animals were divided into 5 groups, 10 individuals each. The groups are as follows: Group 1, control unstressed animals, receiving 10 μl (a pair of 5 μl doses) of saline intranasally; Group 2, stressed animals, receiving 10 pI of saline intranasal (CRS+Veh); Group 3, stressed animals, receiving fluoxetine (FO) at a dose of 5 mg/kg intraperitoneal (CRS+FO, positive control); Group 4, stressed animals, receiving a peptide drug at a dose of 0.3 mg/kg in 10 pI of saline intranasal (CRS+FQSE (SEQ ID NO:10) 0.3); Group 5, stressed animals, receiving a peptide drug at a dose of 3 mg/kg in […] of saline intranasal (CRS+FQSE (SEQ ID NO:10) 3). The administration of drugs was carried out daily, 30 minutes before placing rats in the restrainers. […]
The changes in motor activity and emotional state of animals were evaluated in the Open Field (OFT) and Porsolt Forced Swimming tests (FST) fourteen days after the start of the experiment. […] For three minutes the horizontal and vertical motor activity was measured. The total number of crossed squares, as well as the length of the distance, traveled, and the number of rears was counted. […]

BDNF = assay: Western blot of brain homogenates after CRS: BDNF; format: in vivo, rats; conditions: fluoxetine 5 mg/kg
Method: as §1, §2, §3, §4

Sprague Dawley rats = assay: Predator odor stress exposure and conditioned place aversion (PTSD model); format: in vivo; conditions: DOX 1 mg/kg IP
Method: Doxazosin (DOX, Sigma-Aldrich, St. Louis, MO, USA, 1 mg/kg, IP) was prepared in sterile saline. Previously it has been shown that DOX is effective in the treatment of some PTSD symptoms in veterans (Rodgman et al. (2016). Doxazosin XL reduces symptoms of posttraumatic stress disorder in veterans with PTSD: a pilot clinical trial. J. Clin. Psychiat., 77(5), e561-565). The two doses of FQSE (SEQ ID NO:10) (0.05 and 0.5 mg/kg, CS, Menlo Park, CA) were prepared fresh for each test day in sterile saline and administered intra-nasally 30 minutes prior to testing. Each dose was administered in a randomized order across groups. […] The same procedure with isoflurane was used to administer doxazosin however the drug was administered IP. Individuals performing behavioral tests were blind to drug treatment. […] Potential differences between groups that were not odor exposed and odor exposed groups were analyzed using One-Way ANOVA with drug dose as the primary factor. […]

[1] = system: corticosterone in rat plasma; assay: Learned helplessness model: plasma corticosterone and dexamethasone test; format: in vivo, rats
Method: On the first day of the test (DXMT1) at 10:00 AM, animals were injected intraperitoneally with saline, then at 04:00 PM on the same day peripheral blood samples were taken to determine the basal level of the hormone, which caused stress, and 30 minutes after taking the rat from the cage and receiving initial sample, re-taken blood to measure hormone stress level.
To study the sensitivity of the HPA system to feedback signals, rats were injected with dexamethasone (10 μg/kg, intraperitoneally) the next day (DXMT2) at 10 am. The procedure for taking blood from the tail vein was repeated after 6 and 6.5 hours. The corticosterone content was determined by enzyme-linked immunosorbent assay with reagent kits “Corticosterone-ELISA” (“Hema”, RF) in two parallel samples.
(§5) “LH”—a group of animals subjected to stress, in which a depressive state of “learned helplessness” was developed. Pharmacotherapy was not performed in the LH group; the development of experimental depression was studied. […] “LH+Map.”—the comparison drug group. Maprotiline was injected intraperitoneally at a dosage of 4.5 mg/kg ten days daily to develop experimental depression.

Wistar rats [2] = assay: Learned helplessness model: Porsolt forced swimming test, one-day modification; format: in vivo; conditions: Maprotiline 4.5 mg/kg i/p; FQSE 0.5 mg/kg i/n
Method: (§6) Weigh was measured on an analytical balance, with an accuracy of 0.0001 g, the solution was prepared with a margin of 0.5 ml.
(§7) The tetracyclic antidepressant Maprotiline (Lyudiomil), a monoamine reuptake inhibitor, was used as a positive control. Animals received a daily intraperitoneal injection (i.p) of Maprotiline for ten days (M9651, Merck, 4.5 mg/kg, dissolved in saline: 200 μl per administration).
(§8) The state of “learned helplessness” according to modern concepts adequately reflects anxiety-depressive syndrome, reproducing the main signs of a person's endogenous depression, including the severity of effects of helplessness, hopelessness, and characteristic endocrine disorders. To develop LH, rats were subjected to uncontrolled unavoidable aversive stress (electro cutaneous irritation). […] Stimulation was performed automatically using a software randomizer.
as §5

Wistar rats [3] = assay: Learned helplessness model: Open Field test; format: in vivo
Method: as §6, §7, §8
The Open Field test is a classic method for assessing the level of motor activity and exploratory behavior of rodents in new stressogenic conditions. […] On the 5th day after stressing in the LH model, the rat was placed in the center of the OF. The following parameters were measured for 5 minutes: latency to start of moving, the number of crossed squares (outside, intermediate and central), the duration of the rears and immobilization time.
as §5

Wistar rats [4] = assay: Learned helplessness model: Elevated Plus-Maze test; format: in vivo; conditions: Map 4.5 mg/kg i/p; FQSE 0.5 and 2.5 mg/kg i/n
Method: Weigh was measured on an analytical balance, with an accuracy of 0.0001 g, the solution was prepared with a margin of 0.5 ml. For the experiment, a freshly prepared FQSE (SEQ ID NO:10) solution was used; for the second day, this solution was stored in a refrigerator at +4° C. The tetracyclic antidepressant Maprotiline (Lyudiomil), a monoamine reuptake inhibitor, was used as a positive control. […] The classical paradigm of “learned helplessness” (LH) was used as an experimental model of depression ([…] et al. (1975). Learned helplessness in the rat. J. Comp. Physiol. […] The state of “learned helplessness” according to modern concepts adequately reflects anxiety-depressive syndrome, reproducing the main signs of a person's endogenous depression, including the severity of effects of helplessness, hopelessness, and characteristic endocrine disorders. To develop LH, rats were subjected to uncontrolled unavoidable aversive stress (electro cutaneous irritation). […] Stimulation was performed automatically using a software randomizer. […] The time spent by the animal inside and outside the closed arms (in the open arms and in the center), the number of transitions between the arms, the number of stretch-attended postures were evaluated. […]

## CNCCC(Oc1ccc(C(F)(F)F)cc1)c1ccccc1 (stereo not shown) [fluoxetine]
p-PKC (PKC gamma Thr514); fluoxetine 5 mg/kg, FQSE 0.3 mg/kg
  levels of p-PKC (Thr 514) in the cerebral cortex: showed no changes
p-PKC (PKC gamma Thr514); fluoxetine, FQSE
  normalization of p-PKC levels in the hippocampus: neither fluoxetine nor peptide FQSE (SEQ ID NO:10) contributed to the normalization
p-ERK 2 (Tyr204)
  cortical levels of p-ERK 2 (Tyr204): decreased
p-GSK3β (Ser9)
  p-GSK3β in the hippocampus: no response
p-p70S6k (Thr421/Ser424)
  levels of p-p70S6k in cerebral cortex or hippocampus: showed no relation
Sprague-Dawley rats; FO 5 mg/kg intraperitoneal
  duration of active swimming: no effect
Sprague-Dawley rats; FO 5 mg/kg, vs CRS+Veh
  time spent passive (inactive) swimming: had no effect
BDNF
  levels of BDNF protein in cerebral cortex and hippocampus: showed no relation

## COc1cc2nc(N3CCN(C(=O)C4COc5ccccc5O4)CC3)nc(N)c2cc1OC (stereo not shown) [Doxazosin]
Sprague Dawley rats; FQSE 0.05 and 0.5 mg/kg i.n.
  behavior of groups not exposed to predator odor (time in randomly paired chambers): normal behavior
Sprague Dawley rats; FQSE 0.5 mg/kg intra-nasally, vs VEH
  predator odor-induced place aversion: there was not a significant difference from VEH

## CNCCCC12CCC(c3ccccc31)c1ccccc12 [Maprotiline]
[1]; LH + FQSE 0.5, LH + Map.
  magnitude of suppression—Δ between the Saline and DXM in the stress level of corticosterone: 248.5 nmol/L
[1]; Map 4.5 mg/kg, FQSE 0.5 mg/kg
  suppression of the stress-induced increase in CS in blood after DXM: significant suppression
[1]; Map, FQSE in both doses (0.5, 2.5 mg/kg), vs LH group
  basal level of corticosterone (CS) in plasma: significantly lower level of CS
Wistar rats [2]
  active swimming time: increase in active swimming time
  time spent immobile: significant reduction
Wistar rats [3]; FQSE 0.5 mg/kg i/n, Map 4.5 mg/kg i/p
  vertical activity (rears): did not differ
Wistar rats [3]; FQSE 2.5 mg/kg i/n, Maprotiline 4.5 mg/kg i/p, daily, vs LH group
  freezing time when placed in the center of the OF: significant decrease
Wistar rats [3]; Maprotiline 4.5 mg/kg i/p, FQSE 2.5 mg/kg i/n
  decrease in the number of animals showing immobilization after LH: 2.3 fold
Wistar rats [4]
  appearance on the open arms: did not reach statistical significance
